Measurements: patent publication US20200206313A1, “POLYPEPTIDE NANOTUBES LINKED BY DISULFIDE BONDS FOR TARGETED DELIVERY OF CYTOTOXIC THERAPIES” (MUSC FOUNDATION FOR RESEARCH DEVELOPMENT, priority 2018, published 2020)
No end group written: not given here. *: point of attachment. FITC = O=C1OC2(c3ccc(O)cc3Oc3cc(O)ccc32)c2ccc(NC(=S)*)cc21

How the values were obtained:
[1] = test system: MDAMB231; assay: Cytotoxicity, MTT assay, MDAMB231; type: cell-based
Method: (§1) HeLa (Cervical cancer cell line), MDA-MB-231 (Breast cancer cell line) and HaCaT (Human keratinocytes) cells were maintained in growth medium consisting of Dulbecco's Modified Eagle's Medium (DMEM, Gibco, India) with high glucose, supplemented with 10% FBS and 1% penicillin-streptomycin. The cells were grown in […] flasks (BD Falcon) and passaged every three days. All culture reagents were purchased from Thermofisher scientific. The serum free media was used to eliminate any confounding effects from serum adsorption to the nanotubes. Within the time-period (5 h) of the experiment, no adverse cellular responses were observed from serum deprivation or serum shock after a transfer from serum containing growth media.
(§2) Cytotoxicity of nanotube, DOX loaded nanotube and free DOX were assessed in HeLa and MDAMB231 using the MTT assay. About 5×10^3 cells were seeded per well of a 96-well plate and allowed to attach during incubation for 24 h in a humidified incubator at 37° C. Cells were treated with different concentrations of nanotubes, free DOX or DOX loaded nanotubes ranging from 0.2 to 6.4 μg/ml. Four hours before termination of the assay, MTT was added. Mitochondria of viable cells […] MTT to produce purple Formazan crystals. […] The absorbance of each well was measured at 570 nm using a microplate reader (Synergy HT, BioTek Instrument Inc., Winooski Vt.). […]

[2] = Stability of mature nanotubes by AFM; type: physicochemical; details: ~9-months old nanotubes
Method: AFM experiments were performed on a NX-10 AFM (Park systems) system in the non-contact mode. The protein sample was dropped onto freshly cleaved mica and incubated for 20 min. After rinsing with Milli-Q water two times, the sample was dried in a desiccator. […] The tip radius was <10 nm. Images were obtained at a scan rate of 1 Hz.

[3] = Zeta potential; type: physicochemical
Method: The Nano tubular size distribution was measured on Zetasizer (Malvern, Southborough, Mass., USA). The changes in the surface charges of free nanotube and nanotube-DOX were probed via the zeta potential using Nano ZS (Malvern, Southborough, Mass., USA).

[4] = test system: HeLa; assay: Cytotoxicity, MTT assay, HeLa; type: cell-based
Method: as §1, §2

[5] = test system: integrin-induced phosphorylation of FAK at tyrosine 397; assay: Integrin signaling: Western blot of FAK phosphorylation at tyrosine 397 in HeLa cells; type: cell-based; details: 500 ng/ml, 1 h
Method: Cells were maintained as mentioned above in 65 mm dishes. HeLa cells were serum starved for 24 h to remove the effect of serum on cells. Cells were treated with nanotubes or full length IGFBP-2 (1-289) for 1 h in serum-free DMEM. An additional set of cells was treated for 1 h with nanotubes or full length IGFBP-2 without the integrin pathway inhibitor (RGDS) under the same conditions. For control treatments, cells were pretreated with 10 mM RGDS peptide for 1 h. Later, cells were washed once with PBS and lysed in detergent lysis buffer (150 mM NaCl (Sigma Aldrich, USA), 0.1% SDS (Calbiochem, Germany), 0.5% NP40 (Amresco, USA), 1 mM EDTA (pH 8) and protease inhibitor cocktail, PIC (Calbiochem) with gentle vortexing at 4° C. for 20 min and centrifuged at 10,000×g for 10 min. The soluble fraction was separated and, protein estimation was done by Bradford assay. 30 μg of total protein was dissolved in SDS sample buffer (240 mM Tris-HCl (pH 6.8), 8% (w/v) SDS, 0.1% bromophenol blue and 40% (v/v) glycerol), heated at 96° C. for 10 min and centrifuged briefly. Samples were resolved on 12.5% SDS-polyacrylamide gels in Tris-glycine electrophoresis buffer (pH 8.3) containing 25 mM Tris base, 250 mM glycine and 0.1% SDS at 100 Volts for 2 h. […]

[6] = Stability of nanotubes by fluorescence emission spectra at various pH and temperature; type: physicochemical
Method: Fluorescence spectra were acquired on a Perkin Elmer Fluorescence spectrometer. Spectra were recorded for protein samples prepared in 10 mM Tris buffer at pH 7 or 12 (i.e., neutral and basic pH) and 10 mM HEPES buffer at pH 2 (acidic pH) and data were recorded using a 1.0 cm path length quartz cuvette. An excitation wavelength of 280 nm (tyrosine excitation) was used having slit width 2.5 nm and emission spectra were collected from 300 nm to 550 nm with λmax at 340 nm.

[7] = test system: integrin receptors on the cell surface (HeLa cells); assay: Confocal imaging of nanotube-FITC interaction with HeLa cells; type: cell-based; details: for change of cell-associated signal after integrin inhibitor RGDS: 1 h with 25 μg/ml inhibitor after 4 h incubation
Method: (§3) For microscopic analysis, cells were grown on sterile coverslips with all treatments performed in DMEM without serum for 1 h or 4 h. Treatment was terminated by removing medium and cells washing cells twice with PBS followed by nuclear staining with DAPI (4′,6-diamidino-2-phenylindole) for 10 min at room temperature. Cells were then washed with DPBS and excess buffer was removed. Coverslips were then treated with Antifade (Thermo Fisher Scientific India Private Ltd.) and sealed to a sterile glass slide and analyzed by confocal microscopy (LSM 510 Meta equipped with an Airyscan module, Zeiss, GmbH, Germany).

[8] = test system: HeLa cells; assay: Confocal visualization of cellular uptake of DOX in HeLa cells; type: cell-based; details: 0.4 μg/ml, 1 h and 4 h
Method: as §3

[9] = test system: HeLa cells; assay: Cellular uptake of DOX by FACS, HeLa; type: cell-based; details: percentage population, 0.4 μg/ml, the sentence does not name the cell line (HeLa assumed)
Method: Fluorescence-activated cell sorting (FACS) was used to quantify the cellular uptake of free Doxorubicin and that released from the Nanotube-DOX conjugates exposed to HeLa and HaCaT cells. The cells were treated with free DOX and Nanotube-DOX for 0.5, 1, 2 and 4 h using concentrations corresponding to their IC50 values. The cells were washed with DPBS to remove the unassimilated DOX and then trypsinized. The cell suspension was then centrifuged, and the pellet was re-suspended in 300 μl of DPBS with 0.1% of FBS. The DOX uptake was estimated by quantifying the cell populations using FACS employing Cell Quest software (using a FACSCalibur instrument, BD Biosciences, San Jose Calif.).

[10] = In vitro DOX release by dialysis method; type: physicochemical; details: physiological pH 7.4, 37° C., free DOX versus nanotube-DOX
Method: In-vitro drug release experiments were conducted using the dialysis method. The Nanotube-DOX conjugate was dialyzed against medium under different conditions: pH 5, pH 7.4, pH 7.4 with addition of 10 mM GSH, pH 5+10 mM GSH, pH 7.5+10 mM GSH+Enzyme (trypsin) and pH 5+10 mM GSH+trypsin. GSH was used to stimulate redox conditions and trypsin was used to investigate the effect of a non-specific enzyme on nanotube drug carrying ability. As a control free DOX was dialyzed against the same medium at physiological pH (7.4). All dialysis experiments were performed using a dialysis kit having a molecular mass cutoff of 1 kDa. Samples were dialyzed against the DMEM medium without phenol red (Thermofisher scientific) containing 1% P/S (Penicillin-Streptomycin, Cat no, India), 10% FBS (Fetal bovine serum, RM10432, Himedia, India) separately, with gentle and constant stirring at 37° C. At specific time points, aliquots of the medium were collected and absorbance at 495 nm was measured to quantify the release of DOX.

nanotube: Self-assembled disulfide-linked nanotube of polypeptide hIGFBP-2 249-289 (R281C), SEQ ID NO: 1, with RGD motif (GPLGSPGIRGSCVNPNTGKLIQGAPTIRGDPECHLFYNEQQEACGVHTQRMT; not fully specified (bridges); also: self-assembled nanotube, subunits linked by intermolecular disulfides (Cys12, Cys33, Cys44))
cytotoxicity of nanotube alone ([1]; MDAMB231, after 48 h): did not cause any appreciable cytotoxicity
morphological characteristics on storage [2]: intact
zeta potential [3]: −21.4 mV
cytotoxicity of nanotube alone ([4]; after 48 h): did not cause any appreciable cytotoxicity
pFAK induction in presence of RGDS inhibitor ([5]; RGDS pre-treatment): compromised
intensity of pFAK ([5]; absence of inhibitor): higher compared to control cells
stability at different pH ([6]; pH 2, 7 and 12, fluorescence spectra): stable at all the three pH
stability at high temperature ([6]; pH 7, 90° C., fluorescence spectra): intact

nanotube-FITC (GPLGSPGIRGSCVNPNTGK(FITC)LIQGAPTIRGDPECHLFYNEQQEACGVHTQRMT; not fully specified (bridges); also: self-assembled nanotube, subunits linked by intermolecular cysteine disulfides)
internalization / cellular distribution ([7]; 360 ng/ml, 4 h, serum free medium): no significant internalization
change of cell-associated signal after integrin inhibitor RGDS [7]: prominent loss of nanotube-FITC intensity

Fluorescein isothiocyanate [free FITC, reference compound]
change of cell-associated signal after integrin inhibitor RGDS [7]: does not show a significant decrease

COc1cccc2c1C(=O)c1c(O)c3c(c(O)c1C2=O)C[C@@](O)(C(=O)CO)C[C@@H]3O[C@H]1C[C@H](N)[C@H](O)[C@H](C)O1.Cl [free DOX, Doxorubicin hydrochloride]
cells killed ([1]; MDAMB231, 5 μg/ml, 48 h): ~70%
cells killed ([4]; 5 μg/ml, 48 h): ~70%
intracellular localization of drug [8]: major accumulation is seen within nuclei
increase in Dox uptake from 2 h to 4 h [9]: more than 5 fold
release of DOX into the medium [10]: faster than that of DOX loaded on the nanotube
